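96-well plates; 48 h exposure; 5 concentrations. Endpoints by linear interpolation between flanking doses. Not reached: highest tested concentration assigned. GI50: concentration for 50% inhibition of growth. TGI: total growth inhibition.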
Assays:
Test in all cases: NCI tumour cell line growth inhibition, 48 h
HCC-2998 colon = test system: HCC-2998 colon
SF-295 CNS = test system: SF-295 CNS
A549 NSCLC = test system: A549 NSCLC
SK-MEL-28 melanoma = test system: SK-MEL-28 melanoma
HT29 colon = test system: HT29 colon
SF-268 CNS = test system: SF-268 CNS
RPMI-8226 leukemia = test system: RPMI-8226 leukemia
OVCAR-4 ovarian = test system: OVCAR-4 ovarian
HS 578T breast = test system: HS 578T breast
NCI/ADR-RES ovarian = test system: NCI/ADR-RES ovarian
UACC-257 melanoma = test system: UACC-257 melanoma
HCT-116 colon = test system: HCT-116 colon
HL-60(TB) leukemia = test system: HL-60(TB) leukemia
A498 renal = test system: A498 renal
SK-MEL-5 melanoma = test system: SK-MEL-5 melanoma
SK-OV-3 ovarian = test system: SK-OV-3 ovarian
MDA-MB-435 = test system: MDA-MB-435
SK-MEL-2 melanoma = test system: SK-MEL-2 melanoma
NCI-H460 lung = test system: NCI-H460 lung
UO-31 renal = test system: UO-31 renal
DU-145 prostate = test system: DU-145 prostate
COLO 205 colon = test system: COLO 205 colon
CAKI-1 renal = test system: CAKI-1 renal
786-0 renal = test system: 786-0 renal
LOX IMVI melanoma = test system: LOX IMVI melanoma
MCF7 breast = test system: MCF7 breast
SN12C renal = test system: SN12C renal
SR leukemia = test system: SR leukemia
UACC-62 melanoma = test system: UACC-62 melanoma
NCI-H226 lung = test system: NCI-H226 lung
RXF 393 renal = test system: RXF 393 renal
PC-3 prostate = test system: PC-3 prostate
T-47D breast = test system: T-47D breast
SF-539 CNS = test system: SF-539 CNS
U251 CNS = test system: U251 CNS
IGROV1 ovarian = test system: IGROV1 ovarian
K-562 leukemia = test system: K-562 leukemia
HOP-62 NSCLC = test system: HOP-62 NSCLC
TK-10 renal = test system: TK-10 renal
OVCAR-8 ovarian = test system: OVCAR-8 ovarian
MOLT-4 leukemia = test system: MOLT-4 leukemia
MDA-MB-231 breast = test system: MDA-MB-231 breast
OVCAR-5 ovarian = test system: OVCAR-5 ovarian
M14 melanoma = test system: M14 melanoma
HCT-15 colon = test system: HCT-15 colon
SNB-19 CNS = test system: SNB-19 CNS
BT-549 breast = test system: BT-549 breast
SNB-75 CNS = test system: SNB-75 CNS
EKVX NSCLC = test system: EKVX NSCLC
NCI-H522 lung = test system: NCI-H522 lung
MALME-3M melanoma = test system: MALME-3M melanoma
CCRF-CEM leukemia = test system: CCRF-CEM leukemia
SW-620 colon = test system: SW-620 colon
ACHN renal = test system: ACHN renal
KM12 colon = test system: KM12 colon
HOP-92 NSCLC = test system: HOP-92 NSCLC

Structure (SMILES): O=C1C(N2CCN(c3ccccc3)CC2)=C(Cl)C(=O)c2ncccc21
- GI50 (HCC-2998 colon): 12 µM
- TGI (HCC-2998 colon): 24.9 µM
- GI50 (SF-295 CNS): 14.2 µM
- TGI (SF-295 CNS): 27.3 µM
- GI50 (A549 NSCLC): 16.5 µM
- TGI (A549 NSCLC): 32.6 µM
- GI50 (SK-MEL-28 melanoma): 3.31 µM
- TGI (SK-MEL-28 melanoma): 10.3 µM
- GI50 (HT29 colon): 12 µM
- TGI (HT29 colon): 27.3 µM
- GI50 (SF-268 CNS): 15.2 µM
- TGI (SF-268 CNS): 29.6 µM
- GI50 (RPMI-8226 leukemia): 2.1 µM
- TGI (RPMI-8226 leukemia): 5.37 µM
- GI50 (OVCAR-4 ovarian): 1.79 µM
- TGI (OVCAR-4 ovarian): 3.44 µM
- GI50 (HS 578T breast): 13.6 µM
- TGI (HS 578T breast): 47.4 µM
- GI50 (NCI/ADR-RES ovarian): 4.33 µM
- TGI (NCI/ADR-RES ovarian): 20.7 µM
- GI50 (UACC-257 melanoma): 2.21 µM
- TGI (UACC-257 melanoma): 6.22 µM
- GI50 (HCT-116 colon): 1.73 µM
- TGI (HCT-116 colon): 3.11 µM
- GI50 (HL-60(TB) leukemia): 1.36 µM
- TGI (HL-60(TB) leukemia): 3.94 µM
- GI50 (A498 renal): 13.5 µM
- TGI (A498 renal): 34 µM
- GI50 (SK-MEL-5 melanoma): 13.1 µM
- TGI (SK-MEL-5 melanoma): 25.7 µM
- GI50 (SK-OV-3 ovarian): 13.8 µM
- TGI (SK-OV-3 ovarian): 29.9 µM
- GI50 (MDA-MB-435): 1.77 µM
- TGI (MDA-MB-435): 3.29 µM
- GI50 (SK-MEL-2 melanoma): 11.2 µM
- TGI (SK-MEL-2 melanoma): 23.6 µM
- GI50 (NCI-H460 lung): 6.73 µM
- TGI (NCI-H460 lung): 22.4 µM
- GI50 (UO-31 renal): 1.91 µM
- TGI (UO-31 renal): 4.3 µM
- GI50 (DU-145 prostate): 11.3 µM
- TGI (DU-145 prostate): 23.6 µM
- GI50 (COLO 205 colon): 4.53 µM
- TGI (COLO 205 colon): 17.1 µM
- GI50 (CAKI-1 renal): 5.5 µM
- TGI (CAKI-1 renal): 18.2 µM
- GI50 (786-0 renal): 6.43 µM
- TGI (786-0 renal): 18.8 µM
- GI50 (LOX IMVI melanoma): 1.59 µM
- TGI (LOX IMVI melanoma): 3.07 µM
- GI50 (MCF7 breast): 1.65 µM
- TGI (MCF7 breast): 3.6 µM
- GI50 (SN12C renal): 4.97 µM
- TGI (SN12C renal): 17.8 µM
- GI50 (SR leukemia): 1.89 µM
- TGI (SR leukemia): 6.42 µM
- GI50 (UACC-62 melanoma): 3.43 µM
- TGI (UACC-62 melanoma): 12.4 µM
- GI50 (NCI-H226 lung): 14.3 µM
- TGI (NCI-H226 lung): 31.9 µM
- GI50 (RXF 393 renal): 1.87 µM
- TGI (RXF 393 renal): 3.43 µM
- GI50 (PC-3 prostate): 9.22 µM
- TGI (PC-3 prostate): 23.1 µM
- GI50 (T-47D breast): 1.76 µM
- TGI (T-47D breast): 3.95 µM
- GI50 (SF-539 CNS): 6.96 µM
- TGI (SF-539 CNS): 20 µM
- GI50 (U251 CNS): 10.3 µM
- TGI (U251 CNS): 22.7 µM
- GI50 (IGROV1 ovarian): 3.48 µM
- TGI (IGROV1 ovarian): 12.3 µM
- GI50 (K-562 leukemia): 2.04 µM
- TGI (K-562 leukemia): 5.51 µM
- GI50 (HOP-62 NSCLC): 17.3 µM
- TGI (HOP-62 NSCLC): 31.4 µM
- GI50 (TK-10 renal): 12.4 µM
- TGI (TK-10 renal): 25.5 µM
- GI50 (OVCAR-8 ovarian): 4.72 µM
- TGI (OVCAR-8 ovarian): 17.6 µM
- GI50 (MOLT-4 leukemia): 1.97 µM
- TGI (MOLT-4 leukemia): 5.38 µM
- GI50 (MDA-MB-231 breast): 1.68 µM
- TGI (MDA-MB-231 breast): 3.21 µM
- GI50 (OVCAR-5 ovarian): 16.6 µM
- TGI (OVCAR-5 ovarian): 32 µM
- GI50 (M14 melanoma): 3.92 µM
- TGI (M14 melanoma): 14.7 µM
- GI50 (HCT-15 colon): 2.08 µM
- TGI (HCT-15 colon): 6.22 µM
- GI50 (SNB-19 CNS): 16.1 µM
- TGI (SNB-19 CNS): 30.6 µM
- GI50 (BT-549 breast): 10.2 µM
- TGI (BT-549 breast): 21.8 µM
- GI50 (SNB-75 CNS): 17.5 µM
- TGI (SNB-75 CNS): 38 µM
- GI50 (EKVX NSCLC): 1.73 µM
- TGI (EKVX NSCLC): 3.38 µM
- GI50 (NCI-H522 lung): 1.73 µM
- TGI (NCI-H522 lung): 3.55 µM
- GI50 (MALME-3M melanoma): 1.95 µM
- TGI (MALME-3M melanoma): 4.25 µM
- GI50 (CCRF-CEM leukemia): 2.33 µM
- TGI (CCRF-CEM leukemia): 6.65 µM
- GI50 (SW-620 colon): 1.67 µM
- TGI (SW-620 colon): 3.89 µM
- GI50 (ACHN renal): 2.21 µM
- TGI (ACHN renal): 5.8 µM
- GI50 (KM12 colon): 20.7 µM
- TGI (KM12 colon): 43.6 µM
- GI50 (HOP-92 NSCLC): 1.49 µM
- TGI (HOP-92 NSCLC): 2.93 µM

Reference: PubChem BioAssay (NCI)
